These results are taken from ChEMBL document CHEMBL1201862, “PubChem BioAssay data set” (2004).

Usually AC50 stands for the concentration giving half of the maximal activity seen.

The nature of test [1]: inhibitors of TRPM1-promoter reporter in SK-MEL-5 – cell-based, luciferase, dry powder, set 9, MITF inhibitor project, dose response (AID 651588). The format is functional.
Test [2] is described as follows: cytotoxicity in MITF-independent A375 cells – cell-based, CellTiter-Glo luminescence, dry powder, set 4, counter-screen for MITF inhibitor project, dose response (AID 624364).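 Note: A375 melanoma cells are MITF independent so this is a counter screen.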 Format: functional. The note with it: A-375. (In general: Cellular ATP, detected with luciferase, serves as a proxy for viable cell number.)
Test [3] can be described thus: viability loss in MITF-independent A375 cells – cell-based, CellTiter-Glo luminescence, dry powder, set 7, counter-screen for MITF inhibitor project, dose response (AID 624490). Format: functional. The note with it: A-375.
Test [4] in a line: MITF Orthogonal Assay: MALME3 CTG Assay Measured in Cell-Based System Using Plate Reader - 2084-04_Inhibitor_Dose_DryPowder_Activity_Set6. Format: functional. The settings on record: MALME-3.
The nature of test [5]: growth inhibition of SK-MEL-5 melanoma cells – cell-based, CellTiter-Glo luminescence, dry powder, set 8, orthogonal assay for MITF inhibitor project, dose response (AID 651586). Format: functional.
Test [6] is described as follows: growth inhibition of MALME3 cells – cell-based, CellTiter-Glo luminescence, dry powder, set 5, orthogonal assay for MITF inhibitor project, dose response (AID 651584). The note with it: MALME-3. The format is functional.
Test [7] is described as follows: cytotoxicity in melanoma parental cells – cell-based, CellTiter-Glo, dry powder, set 6, MITF inhibitor project, dose response (AID 624429). Format: functional. The settings on record: SK-MEL-5.
Test [8] in a line: MITF Orthogonal Assay: SK-MEL-5 CTG Assay Measured in Cell-Based System Using Plate Reader - 2084-02_Inhibitor_Dose_DryPowder_Activity_Set5. The format is functional.
Test [9] is described as follows: viability loss in MITF-independent A375 cells – cell-based, CellTiter-Glo luminescence, dry powder, set 6, counter-screen for MITF inhibitor project, dose response (AID 624488). The format is functional. The note with it: A-375.
Test [10] in a line: MITF Measured in Cell-Based System Using Plate Reader - 2084-01_Inhibitor_Dose_DryPowder_Activity_Set6. Format: functional.
A short description of test [11]: MITF Measured in Cell-Based System Using Plate Reader - 2084-01_Inhibitor_Dose_DryPowder_Activity_Set7. The format is functional.
Test [12] concerns the target Paired box protein Pax-8 (Homo sapiens, UniProt Q06710). Nature of the test: PAX8 transcriptional activity inhibition in RMG-I – RMG-I cells, luciferase, cherry-pick, dose response (AID 687027).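 Note: luciferase reporter driven by Pax8 target thyroperoxidase promoter measured by SteadyGlo luminescence.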 The format is functional, cell-based.
A short description of test [13]: toxicity toward immortalized ovarian surface epithelium – cell-based, plate reader, dry powder samples, cytotoxicity control for PAX8 inhibitor project, dose response (AID 743045). Format: functional.
The nature of test [14]: A2780 cell killing – plate reader, dry powder samples, cytotoxicity control, dose response (AID 743046). The format is functional, cell-based.
Test [15] can be described thus: OVCAR-3 cell viability loss – plate reader, dry powder samples, PAX8 inhibitor project, dose response (AID 743044). The format is functional, cell-based.
Test [16] can be described thus: IGROV1 cell killing – plate reader, dry powder samples, PAX8 inhibitor project, dose response (AID 743043). The format is functional, cell-based. The settings on record: IGROV-1.
A short description of test [17]: OVCAR8 cell viability loss – plate reader, dry powder samples, PAX8 project, dose response (AID 743197). Format: functional, cell-based. The note with it: OVCAR-8.
The target of test [18] is T1, NAD-dependent protein deacylase sirtuin-5, mitochondrial (Homo sapiens, UniProt Q9NXA8). Nature of the test: blockers of sirtuin-5 peptide desuccinylation – biochemical, fluorescence imaging, cherry-pick, set 6, dose response (AID 720597).
T1 sequence (Q9NXA8 whole entry): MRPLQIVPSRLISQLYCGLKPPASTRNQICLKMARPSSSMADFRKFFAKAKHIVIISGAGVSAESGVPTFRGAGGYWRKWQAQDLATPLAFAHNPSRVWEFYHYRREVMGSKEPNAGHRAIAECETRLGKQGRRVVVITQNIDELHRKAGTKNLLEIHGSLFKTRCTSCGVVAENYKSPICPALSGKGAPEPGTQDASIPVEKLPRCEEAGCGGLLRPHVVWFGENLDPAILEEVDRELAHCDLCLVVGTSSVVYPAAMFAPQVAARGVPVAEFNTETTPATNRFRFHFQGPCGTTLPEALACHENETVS
The nature of test [19]: ATP-based viability loss in HepG2 cells – cell-based, CellTiter-Glo luminescence, dry powder, set 3, cytotoxicity control, dose response (AID 720594). The format is functional.
Test [20] is described as follows: ATP-based viability loss in HEK293T cells – cell-based, CellTiter-Glo luminescence, dry powder, set 2, cytotoxicity control, dose response (AID 720595). The format is functional. The settings on record: HEK293.
Test [21] in a line: ATP-based viability loss in HeLa cells – cell-based, CellTiter-Glo luminescence, dry powder, set 2, cytotoxicity control, dose response (AID 720593). Format: functional.
Test [22] concerns the target T1, NAD-dependent protein deacylase sirtuin-5, mitochondrial. Nature of the test: sirtuin-5 deacylation blockers, concentration series – biochemical, fluorescence imaging, cherry-pick, set 5, dose response (AID 720591).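 Note: desuccinylation of succinyl peptide AMC substrate read as fluorescence after trypsin release; potency of inhibitors that lower fluorescence and may act on trypsin instead.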
Test [23] in a line: viability loss in A549 lung cells – cell-based, 24 h, CellTiter-Glo luminescence, cherry-picks, cytotoxicity control, dose response (AID 1053115). Format: functional. The settings on record: A549, 24 h.

The source made the active and inactive calls.

Sequence of Paired box protein Pax-8 (Q06710 whole entry): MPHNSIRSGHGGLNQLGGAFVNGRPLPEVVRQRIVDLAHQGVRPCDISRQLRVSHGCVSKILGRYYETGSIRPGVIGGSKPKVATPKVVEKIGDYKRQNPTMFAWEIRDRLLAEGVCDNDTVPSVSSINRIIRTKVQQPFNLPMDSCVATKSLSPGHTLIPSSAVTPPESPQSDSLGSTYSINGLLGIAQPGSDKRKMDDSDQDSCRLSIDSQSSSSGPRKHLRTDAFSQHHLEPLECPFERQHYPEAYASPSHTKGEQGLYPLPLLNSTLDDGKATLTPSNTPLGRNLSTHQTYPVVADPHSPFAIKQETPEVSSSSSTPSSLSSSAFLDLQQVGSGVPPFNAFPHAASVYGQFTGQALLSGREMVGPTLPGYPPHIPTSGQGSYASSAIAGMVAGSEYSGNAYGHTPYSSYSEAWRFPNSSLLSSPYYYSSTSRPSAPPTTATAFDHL

In the case of `NC1=C(NS(=O)(=O)c2ccccc2)C(=O)c2ccccc2C1=O`, the AC50 in [1] was 15.8 µM (active); in [2], > 70 µM (inactive); in test [3] it was > 70 µM (inactive); in [4], 22.6 µM (active); in [5] it was 17.5 µM (active); in [6] it was 22.6 µM (active). The AC50 is 16.1 µM (active) in test [7]; 16.1 µM (active) in [8]; 54.6 µM (active) in test [9]; 7 µM (active) in test [10]; 4.7 µM (active) in test [11].
Consider `Cc1ccc(S(=O)(=O)Nc2ccc3c(c2)C(=O)N([C@H](C)CO)C[C@H](C)[C@@H](CN(C)S(=O)(=O)c2ccc(C)cc2)OCCCC[C@H](C)O3)cc1`, for which the AC50 in test [12] is 5.76 µM (active); in test [13] it was 23.6 µM (active); in test [14], 34.5 µM (active); in test [15] it was 18.5 µM (active); in test [16], 44.2 µM (active); in test [17], > 70 µM (inactive).
As for `O=C(C[C@H]1C[C@H]2c3cc(NC(=O)C4CCC4)ccc3O[C@H]2[C@H](CO)O1)NCCN1CCCCC1`, the AC50 in [18] was > 30 µM (inactive).
Regarding `CC(C)C(=O)NC(c1ccco1)c1cc(Cl)c2cccnc2c1O` (stereo not drawn), the AC50 in test [19] was > 52 µM (inactive); in [20], 8.31 µM (active); in [21], 28.3 µM (active).
For `COc1ccc(C)cc1NC(=O)CCN1CC(C)OC(C)C1` (stereo not drawn), the AC50 in test [22] was > 30 µM (inactive).
For the compound `OC[C@@H]1Nc2ccc(-c3ccccc3)cc2[C@H]2[C@@H]1CCN2Cc1ccc(F)cc1`, the AC50 in test [23] was 47.6 µM (active).
